Results taken from article PMC3281083, “Impact of the Herbal Medicine Sophora flavescens on the Oral Pharmacokinetics of Indinavir in Rats: The Involvement of CYP3A and P-Glycoprotein” (PLoS ONE, 2012).
Where two headings read alike, the source gives them in different places.

Assays:
[1] = Multiple-dose oral pharmacokinetics of indinavir (plasma) with co-administered Sophora preparations; assay type: in vivo, Male Wistar rats; details: male, Wistar, rat, 40 mg/kg; for AUC(0-inf) / CL/F / Cmax / Tmax: po; for AUC(0-inf): read-out: AUC0-∞ of indinavir
Experimental: Thirty rats were randomly designated as vehicle control, low-dose and high-dose Sophora treatment groups (ten rats in each group). A separate experiment was performed using eighteen rats designated as vehicle control, oxymatrine capsule and Sophora EA fraction groups (six rats in each group). […] Indinavir from […]® capsule (Merck & CO. Inc., Whitehouse Station, NJ, USA) was dissolved in 50 mM citric acid, and the oxymatrine capsule contents were dissolved in distilled water. […] The treatments were given twice a day (9 a.m. and 7 p.m.) for 7 consecutive days. The dosages were designed on the basis of clinical doses in human. The daily dose of S. flavescens recommended by the Chinese Pharmacopoeia is 4.5-9 g of raw herb per day. […] Taking the low and high ends of these dose ranges, and using a conversion based on the body-surface-area ratio between rats and human, an animal dose range of 0.45-1.8 g/kg/day (raw herb equivalent) was estimated for experimental rats. […] Plasma was obtained by centrifugation at 7,000× g for 15 min at 4°C and frozen at -80°C prior to analysis. […] Organ tissues, including liver and intestine, were isolated, rinsed with saline, blotted dried, snap-frozen in liquid nitrogen, and stored at -80°C until use. […] Midazolam was used as the internal standard. […] The residues were reconstituted with 200 μL of methanol-water (v/v, 1∶1) solution. The faeces were homogenized in about 4-fold volume of distilled water. The homogenates were extracted with equal volume of acetonitrile. After centrifugation, 1 mL of the supernatant was transferred to a glass tube, and was subsequently subjected to addition of midazolam, alkalization, extraction with ethyl acetate, drying and reconstitution. All reconstituted samples (60 μL) were separated on a Prevail C18 column (250 mm×4.6 mm […]) by an Agilent 1100 HPLC system (Agilent Technologies, Santa Clara, CA, USA). The flow rate was 0.8 mL/min. […] The effluent was introduced to APCI-MS (Agilent 1100 series LC/MSD Trap SL system, Santa Clara, CA, USA) with positive detection mode. […] Extract ion chromatograms at m/z 614 (indinavir) and m/z 326 (midazolam) were used for quantification (Figure S1). Quantification of indinavir was performed on six levels of standards in blank plasma or faeces homogenate. […] The recovery of the analyte ranged from 80% to 90%. […] The area under the plasma concentration-time curves from zero to infinity (AUC0-∞) was calculated by the trapezoidal rules. Clearance (CL) was calculated by the equation (F×Dose)/AUC0-∞, where F is the fraction of dose available in the systemic circulation. Peak plasma concentration (Cmax) and the time when it occurred (T max) were derived directly from the curves. Statistical differences were determined by unpaired Student's t test or one-way analysis of variance (one-way ANOVA) followed by Dunnett's post test. All tests were two-tailed and the significance was set at P<0.05.

[2] = parameters: method as in PMID 10604964, PMID 10497146; details: rats; cited from earlier work
[3] = parameters: method as in PMID 15771225; details: low solubility/high permeability/extensive metabolism; cited from earlier work
[4] = indinavir 40 mg/kg orally, multiple dosage, with EA fraction 0.164 g/kg/day, mean ± S.E.M.
[5] = indinavir 40 mg/kg orally, multiple dosage, with Oxymatrine (capsule) 90 mg/kg/day, mean ± S.E.M.
[6] = indinavir 40 mg/kg orally, multiple dosage, with Sophora extract 0.316 g/kg/day, mean ± S.E.M.
[7] = indinavir 40 mg/kg orally, multiple dosage, with Sophora extract 1.26 g/kg/day, mean ± S.E.M.
[8] = indinavir 40 mg/kg orally, multiple dosage, with vehicle control, mean ± S.E.M.

C0 ([1]; oral, day 8, before last indinavir dose, detectable, below limit of quantification, read-out: Plasma indinavir concentration at time zero): < 50 ng/mL | AUC(0-inf) ([1]; indinavir 40 mg/kg orally twice a day for 7 days, last dose day 8, with vehicle control (1.5% Tween 80), mean ± S.E.M.): 16100 ± 990 ng·h/mL | CL/F [1, 4]: 57.6 mL/min/kg | Cmax [1, 4]: 8410 ± 860 ng/mL | AUC(0-inf) [1, 4]: 12300 ± 1310 ng·h/mL | Tmax ([1]; indinavir 40 mg/kg orally, multiple dosage, with EA fraction 0.164 g/kg/day, mean ± S.E.M., read-out: T max of indinavir): 40.2 ± 9 min | CL/F [1, 5]: 159 mL/min/kg | Cmax [1, 5]: 4970 ± 810 ng/mL | AUC(0-inf) [1, 5]: 5290 ± 1110 ng·h/mL | Tmax ([1]; indinavir 40 mg/kg orally, multiple dosage, with Oxymatrine (capsule) 90 mg/kg/day, mean ± S.E.M., read-out: T max of indinavir): 25.2 ± 7.2 min | CL/F [1, 6]: 101 mL/min/kg | Cmax [1, 6]: 7170 ± 690 ng/mL | AUC(0-inf) [1, 6]: 7230 ± 870 ng·h/mL | Tmax ([1]; indinavir 40 mg/kg orally, multiple dosage, with Sophora extract 0.316 g/kg/day, mean ± S.E.M., read-out: T max of indinavir): 37.2 ± 7.2 min | CL/F [1, 7]: 316 mL/min/kg | Cmax [1, 7]: 3090 ± 1080 ng/mL | AUC(0-inf) [1, 7]: 2780 ± 610 ng·h/mL | Tmax ([1]; indinavir 40 mg/kg orally, multiple dosage, with Sophora extract 1.26 g/kg/day, mean ± S.E.M., read-out: T max of indinavir): 30 ± 11.4 min | CL/F [1, 8]: 42.8 mL/min/kg | Cmax [1, 8]: 11500 ± 670 ng/mL | Tmax ([1]; indinavir 40 mg/kg orally, multiple dosage, with vehicle control, mean ± S.E.M., read-out: T max of indinavir): 30 ± 6 min | Tmax ([1]; oral, read-out: T max of indinavir determined in our study): 30 to 37 min
SMILES: CC(C)(C)NC(=O)[C@@H]1CN(Cc2cccnc2)CCN1C[C@@H](O)C[C@@H](Cc1ccccc1)C(=O)N[C@H]1c2ccccc2C[C@H]1O [indinavir]
Oral bioavailability [2]: 26% | Metabolic (drug disposition) class [3]: Class 2
